We go through seven molecules from ChEMBL document CHEMBL1121807, “Potential thyroliberin affinity labels. 1. Chloroacetyl-substituted phenylalanylpyrrolidines” (1981).

Assay [1] is filed under the species Rattus norvegicus. Kind of assay: Agonist activity relative to TRH (Thyroliberin) was evaluated in rat at a dose of 0.6 ng. It counts as functional.
The species entered for assay [2] is Rattus norvegicus. Briefly: Agonist activity relative to TRH (Thyroliberin) was evaluated in rat; None at a dose up to 30 ug. It counts as functional, organism-based.
For assay [3], the species on record is Rattus norvegicus. Kind of assay: Agonist activity relative to TRH (Thyroliberin) was evaluated in rat. Format: functional.
For assay [4], the species on record is Rattus norvegicus. Kind of assay: Agonist activity relative to TRH (Thyroliberin) was evaluated in rat; none at a dose up to 30 ug. Format: functional, organism-based.

In the case of `NC(=O)[C@@H]1CCCN1C(=O)[C@H](Cc1c[nH]cn1)NC(=O)[C@@H]1CCC(=O)N1` [PROTIRELIN], the Relative activity in assay [1] came out at 100%. On to `C[C@H](NC(=O)CCl)C(=O)N[C@@H](Cc1ccccc1)C(=O)N1CCCC1`, for which the Relative activity result in assay [2] is on record as “None”. In turn, `C[C@H](NC(=O)c1ccc(C(=O)CCl)cc1)C(=O)N[C@@H](Cc1ccccc1)C(=O)N1CCCC1` yielded a Relative activity in assay [3] of 0.005%. In assay [3], `O=C(CCl)c1ccc(C(=O)NC(Cc2ccccc2)C(=O)N2CCCC2)cc1` (configuration not stated) came in with a Relative activity of 0.0006%. With `C[C@H](NC(=O)c1cccc(C(=O)CCl)c1)C(=O)N[C@@H](Cc1ccccc1)C(=O)N1CCCC1`, the Relative activity result in assay [4] is “None”. With `O=C(CCl)NC(Cc1ccccc1)C(=O)N1CCCC1` (configuration not stated), the Relative activity entry in assay [2] is “None”. For the molecule `O=C(CCl)c1cccc(C(=O)NC(Cc2ccccc2)C(=O)N2CCCC2)c1` (configuration not stated), in assay [3], the Relative activity came out at 0.0012%.
